These results are taken from patent publication US10864202B2, “Inhibitors of lysine specific demethylase-1” (CELGENE QUANTICEL RESEARCH, INC., priority 2014, dated 2020).

One test addresses human LSD1 (Homo sapiens (Human), UniProt O60341). Nature of the test: In vitro enzyme inhibition assay LSD-1 (TR-FRET). The format is biochemical. Conditions: full-length human LSD1, H3K4me1-biotin peptide. How it is done: This assay determines the ability of a test compound to inhibit LSD1 demethylase activity.
The enzymatic assay of LSD1 activity is based on Time Resolved-Fluorescence Resonance Energy Transfer (TR-FRET) detection.
The ability of the compounds disclosed herein to inhibit LSD1 activity was quantified and the respective IC50 value was determined.
(In TR-FRET formats the signal depends on donor and acceptor labels being close together.)

A further test deals with THP-1 (AML) cells. Nature of the test: LSD1 CD11b cellular assay (flow cytometry). The format is cell-based. The note with it: Homo sapiens, 96 h; CD11b expression in THP-1 cells, 4 days incubation. How it is done:
To analyze LSD1 inhibitor efficacy in cells, a CD11b flow cytometry assay was performed. LSD1 inhibition induces CD11b expression in THP-1 (AML) cells which can be measured by flow cytometry. […] LSD1 test compounds were serially diluted in DMSO. The dilutions were added to each well accordingly to a final concentration of 0.2% DMSO. The cells were incubated at 37 degrees Celsius in 5% CO2 for 4 days. 250 μL of each well was transferred to a well in a 96 well round bottom plate. The plate was centrifuged at 1200 rpm at 4 degrees Celsius in a Beckman Coulter Alegra 6KR centrifuge for 5 minutes. The media was removed leaving the cells at the bottom of the wells. The cells were washed in 100 μL cold HBSS (Hank's Balanced Salt Solution) plus 2% BSA (Bovine Serum Albumin) solution and centrifuged at 1200 rpm at 4 degrees Celsius for 5 minutes. The wash was removed. […] The cells were centrifuged and washed two times in 100 μl HBSS plus 2% BSA. After the final spin the cells were resuspended in 100 μL HBSS plus 2% BSA containing 1 ug/mL DAPI (4′,6-diamidino-2-phenylindole). The cells were then analyzed by flow cytometry in a BD FACSAria machine. Cells were analyzed for CD11b expression. The percent of CD11b expressing cells for each inhibitor concentration was used to determine an IC50 curve for each compound analyzed.
On the technique in general: In flow cytometry, cells or beads pass a laser one at a time.

A word on the IC50: it is the concentration at which inhibition is half-maximal. In the case of `N#Cc1ccc(-c2cc3c(ccn3C[C@H]3CCNC3)nc2Cl)cc1` [Example 4], on human LSD1, the IC50 was 100 to 1000 nM. `N#Cc1ccc(-c2nc(N3CC4CNCC(C3)O4)ncc2-c2ccc(F)cc2)cc1` [Example 42, 4-[5-(4-fluorophenyl)-2-{9-oxa-3,7-diazabicyclo[3.3.1]nonan-3-yl}pyrimidin-4-yl]benzonitrile]: the IC50 against human LSD1 was 100 to 1000 nM. Still for that read-out and setting: the value for `N#Cc1ccc(-c2cc3c(ccn3CC3(F)CCNC3)nc2N2CCOCC2)cc1` (stereo not shown) [Example 8, 4-[1-[(3-fluoropyrrolidin-3-yl)methyl]-5-morpholin-4-ylpyrrolo[3,2-b]pyridin-6-yl]benzonitrile] was 100 to 1000 nM; that for `Cc1ccc(-c2cnc(NCC3CCCNC3)nc2-c2ccc(C#N)cc2)cc1` (racemic) [Example 31, (±)-4-5-(4-methylphenyl)-2-[(piperidin-3-ylmethyl)amino]pyrimidin-4-yl]benzonitrile] was < 100 nM; that for `Cc1ccc(-c2cnc(N3CC4CNCC(C3)O4)nc2-c2ccc(C#N)cc2)cc1` [Example 41, 4-[5-(4-methylphenyl)-2-{9-oxa-3,7-diazabicyclo[3.3.1]nonan-3-yl}pyrimidin4-yl]benzonitrile] was 100 to 1000 nM. Same read-out and setting: next, `Cc1ccc(-c2cnc(N[C@@H]3C[C@H]4CNC[C@H]4C3)nc2-c2ccc(C#N)cc2)cc1` [Example 27]: 100 to 1000 nM; `Cc1ccc(-c2cnc(NCC3CNCCO3)nc2-c2ccc(C#N)cc2)cc1` (racemic) [Example 33, (±)-4-[5-(4-methylphenyl)-2-[(morpholin-2-ylmethyl)amino]pyrimidin-4-yl]benzonitrile]: < 100 nM. In the case of `N#Cc1ccc(-c2nc(NCC3CCNC3)ncc2C#CC2CC2)cc1` (stereo not shown) [Example 26], the half-inhibitory concentration (IC50) in the test with THP-1 (AML) cells was 100 to 1000 nM. On to `N#Cc1ccc(-c2cc3c(ccn3C[C@@H]3CCNC3)nc2N2CCOCC2)cc1` [Example 6], for which the 50% inhibitory concentration (IC50) at human LSD1 fell in the range of 100 to 1000 nM. The same measure, in the same setting: the value for `N#Cc1ccc(-c2nc(NC[C@H]3CCNC3)ncc2Cl)cc1` [Example 17, 4-(5-chloro-2-{[(3S)-pyrrolidin-3-ylmethyl]amino}pyrimidin-4-yl)benzonitrile] was 100 to 1000 nM.
